The subject of one data set is rgRSV224 virus. Briefly: Antiviral activity: rgRSV224 (GFP) replication in HeLa cells. Format: cell-based, respiratory syncytial virus (RSV). The note with it: human respiratory syncytial virus, HeLa, 72 h, read-out: RSV HELA pEC50, rgRSV224 virus (MOI=1), HeLa cells, GFP expression, three days post-virus exposure (converted). The procedure:
Black 384-well clear-bottom microtiter plates (Corning, Amsterdam, The Netherlands) were filled via acoustic drop ejection using the echo liquid handler (Labcyte, Sunnyvale, Calif.), 200 nL of compound stock solutions (100% DMSO) were transferred to the assay plates, 9 serial 4-fold dilutions of compound were made, creating per quadrant the same compound concentration. The assay was initiated by adding 10 μL of culture medium to each well (RPMI medium without phenol red, 10% FBS-heat inactivated, 0.04% gentamycin (50 mg/mL). All addition steps are done by using a multidrop dispenser (Thermo Scientific, Erembodegem, Belgium). Next, rgRSV224 virus (MOI=1) diluted in culture medium was added to the plates, rgRSV224 virus is an engineered virus that includes an additional GFP gene (Hallak L K, Spillmann D. Collins P L, Peeples M E.
(§1) Glycosaminoglycan sulfation requirements for respiratory syncytial virus infection; Journal of virology (2000), 74(22), 10508-13) and was in-licensed from the NIH (Bethesda, Md., USA). Finally, 20 μL of a HeLa cell suspension (3,000 cells/well) were plated. Medium, virus- and mock-infected controls were included in each test. The wells contain 0.05% DMSO per volume. Cells were incubated at 37° C. in a 5% CO2 atmosphere. Three days post-virus exposure, viral replication was quantified by measuring GFP expression in the cells by an in house developed MSM laser microscope (Tibotec. Beerse, Belgium). The EC50 was defined as the 50% inhibitory concentration for GFP expression. In parallel, compounds were incubated for three days in a set of white 384-well microtiter plates (Corning) and the cytotoxicity of compounds in HeLa cells was determined by measuring the ATP content of the cells using the ATPlite kit (PerkinElmer, Zaventem, Belgium) according to the manufacturer's instructions. The CC50 was defined as the 50% concentration for cytotoxicity.

Data set [1] can be described thus: Cytotoxicity in HeLa cells (ATP content, ATPlite kit). Format: cell-based. The conditions noted are these: human, three days incubation, read-out: TOX HELA pCC50 (converted). The procedure: as §1
A general note: Cellular ATP, detected with luciferase, serves as a proxy for viable cell number.

Broadly, the melting point is the temperature, or range, at which the solid turns liquid. `CC(=O)c1cccc(-c2nccnc2N2CCN(c3ccccc3)CC2)c1` [Compound 1] returned a melting point of 172.56 °C. Moreover, the EC50 in the data set on rgRSV224 virus was 0.955 µM. Moreover, in data set [1], the CC50 at 3 days is 2.29 µM.

In turn, `c1ccc(-c2ncccc2N2CCN(c3ccncc3)CC2)cc1` [Compound 2] had a melting point of 204.15 °C. Also, the EC50 in the data set on rgRSV224 virus was 0.603 µM. Moreover, the CC50 at 3 days in data set [1] was 1.12 µM.

Turning to `Fc1cccc(-c2nccnc2N2CCN(c3ccccc3)CC2)c1` [Compound 6], the melting point was found to be 139.51 °C. Further, in the data set on rgRSV224 virus, the EC50 is 0.575 µM. Also, in data set [1], the CC50 at 3 days is greater than 100 µM.

`CC(=O)c1cccc(-c2ncccc2N2CCN(c3ccccc3)CC2)c1` [Compound 8] yielded a melting point of 175.94 °C. For the same compound, in the data set with rgRSV224 virus, the EC50 is 0.646 µM. The CC50 at 3 days in data set [1] was greater than 100 µM.

Take `c1cnc(-c2ccc3c(c2)OCO3)c(N2CCN(c3ccncc3)CC2)c1` [Compound 9]: the melting point came out at 187.8 °C. For the same compound, the EC50 in the data set on rgRSV224 virus is 0.692 µM. Further, the CC50 at 3 days in data set [1] is greater than 100 µM.

The compound `c1cnc(-c2ccc3ccccc3c2)c(N2CCN(c3ccncc3)CC2)c1` [Compound 10] came in with a melting point of 162.05 °C. Besides, in the data set on rgRSV224 virus, the EC50 was 0.0794 µM. For the same compound, in data set [1], the CC50 at 3 days was 39.8 µM.

Compound `Clc1ccc(-c2ncccc2N2CCN(c3ccncc3)CC2)cc1Cl` [Compound 11] displayed a melting point of 159.5 °C. The EC50 in the data set on rgRSV224 virus was 0.269 µM. Also, in data set [1], the CC50 at 3 days is 28.2 µM.

As to `Fc1cccc(-c2ncccc2N2CCN(c3ccncc3)CC2)c1` [Compound 12], the melting point stood at 184.88 °C. The EC50 in the data set with rgRSV224 virus is 0.871 µM. The CC50 at 3 days in data set [1] was greater than 100 µM.

As to `Fc1ccc(-c2ncccc2N2CCN(c3ccncc3)CC2)cc1` [Compound 13], the melting point is 173.62 °C. Moreover, the EC50 in the data set with rgRSV224 virus was 0.603 µM. Also, in data set [1], the CC50 at 3 days was greater than 89.1 µM.

The compound `COc1ccc(-c2ncccc2N2CCN(c3ccncc3)CC2)cn1` [Compound 17] returned a melting point of 138 °C. Further, the EC50 in the data set on rgRSV224 virus was 0.437 µM. In addition, in data set [1], the CC50 at 3 days is greater than 97.7 µM.

Compound `c1cnc(-c2ccncc2)c(N2CCN(c3ccncc3)CC2)c1` [Compound 20] returned a melting point of 166 °C. Besides, the EC50 in the data set with rgRSV224 virus was 0.871 µM. In addition, the CC50 at 3 days in data set [1] was greater than 100 µM.

As to `c1cnc(-c2cc3ccccc3s2)c(N2CCN(c3ccncc3)CC2)c1` [Compound 21], the melting point is 224 °C. Further, the EC50 in the data set on rgRSV224 virus is 0.204 µM. Further, the CC50 at 3 days in data set [1] was 10.5 µM.

The compound `c1cnc(-c2ccc3c(c2)OCCO3)c(N2CCN(c3ccncc3)CC2)c1` [Compound 22] registered a melting point of 88 °C. For the same compound, the EC50 in the data set with rgRSV224 virus is 0.537 µM. Moreover, in data set [1], the CC50 at 3 days is 0.398 µM.

Turning to `c1cnc(-c2cc3ccccc3o2)c(N2CCN(c3ccncc3)CC2)c1` [Compound 23], the melting point worked out at 252 °C. Further, the EC50 with rgRSV224 virus is 0.0589 µM. For the same compound, the CC50 at 3 days in data set [1] is greater than 50.1 µM.

For `Cn1ccc2cc(-c3ncccc3N3CCN(c4ccncc4)CC3)ccc21` [Compound 24], the melting point stood at 197 °C. Also, the EC50 in the data set on rgRSV224 virus is 0.0724 µM. For the same compound, the CC50 at 3 days in data set [1] was 46.8 µM.

`FC(F)(F)Oc1ccc(-c2ncccc2N2CCN(c3ccncc3)CC2)cc1` [Compound 25]: the melting point is 176 °C. Moreover, the EC50 with rgRSV224 virus is 0.871 µM. Moreover, the CC50 at 3 days in data set [1] was 33.1 µM.

As to `c1cnc(-c2cccc3ccccc23)c(N2CCN(c3ccncc3)CC2)c1` [Compound 26], the melting point stood at 90 °C. For the same compound, the EC50 in the data set with rgRSV224 virus was 0.0851 µM. Besides, the CC50 at 3 days in data set [1] is 7.41 µM.

The compound `c1cnc(-c2ccc3occc3c2)c(N2CCN(c3ccncc3)CC2)c1` [Compound 27] registered a melting point of 192 °C. For the same compound, the EC50 in the data set with rgRSV224 virus is 0.135 µM. The CC50 at 3 days in data set [1] is 74.1 µM.

Turning to `c1cnc(-c2ccc3c(c2)CCO3)c(N2CCN(c3ccncc3)CC2)c1` [Compound 30], the melting point is 200 °C. Further, in the data set with rgRSV224 virus, the EC50 is 0.603 µM. Further, in data set [1], the CC50 at 3 days was 1.7 µM.

Compound `c1cnc(-c2cccc3ncccc23)c(N2CCN(c3ccncc3)CC2)c1` [Compound 31] registered a melting point of 96 °C. For the same compound, the EC50 in the data set on rgRSV224 virus is 0.724 µM. The CC50 at 3 days in data set [1] was greater than 97.7 µM.

Turning to `Clc1cc(N2CCN(c3cccnc3-c3ccccc3)CC2)ccn1` [Compound 32], the melting point turned out to be 122 °C. Besides, the EC50 in the data set with rgRSV224 virus is 0.105 µM. Further, in data set [1], the CC50 at 3 days is 0.135 µM.

Compound `c1cnc(-c2cnc3ccccc3c2)c(N2CCN(c3ccncc3)CC2)c1` [Compound 33] yielded a melting point of 182 °C. In addition, in the data set on rgRSV224 virus, the EC50 is 0.219 µM. Besides, the CC50 at 3 days in data set [1] is greater than 100 µM.

As to `CSc1ccc(-c2ncccc2N2CCN(c3ccncc3)CC2)cc1` [Compound 35], the melting point was 160 °C. Further, the EC50 in the data set on rgRSV224 virus was 0.117 µM. Moreover, the CC50 at 3 days in data set [1] was 45.7 µM.

As for `c1cnc(-c2ccc3[nH]ccc3c2)c(N2CCN(c3ccncc3)CC2)c1` [Compound 36], the melting point was 252 °C. In addition, in the data set on rgRSV224 virus, the EC50 was 0.0794 µM. Besides, the CC50 at 3 days in data set [1] was 44.7 µM.

For `CCn1ccc2cc(-c3ncccc3N3CCN(c4ccncc4)CC3)ccc21` [Compound 37], the melting point was 110 °C. Moreover, in the data set on rgRSV224 virus, the EC50 was 0.0309 µM. Besides, the CC50 at 3 days in data set [1] was 21.9 µM.

On to `c1cnc(-c2coc3ccccc23)c(N2CCN(c3ccncc3)CC2)c1` [Compound 38], for which the melting point was 210 °C. Moreover, in the data set with rgRSV224 virus, the EC50 is 0.132 µM. Besides, in data set [1], the CC50 at 3 days is 44.7 µM.

The compound `c1cnc(-c2cccc3cc[nH]c23)c(N2CCN(c3ccncc3)CC2)c1` [Compound 39] registered a melting point of 162 °C. Further, in the data set with rgRSV224 virus, the EC50 is 0.851 µM. The CC50 at 3 days in data set [1] is 55 µM.

Consider `Cn1ccc2ccc(-c3ncccc3N3CCN(c4ccncc4)CC3)cc21` [Compound 41], for which the melting point stood at 174.57 °C. Further, the EC50 with rgRSV224 virus was 0.0115 µM. Besides, the CC50 at 3 days in data set [1] is 49 µM.

`CS(=O)(=O)Nc1ccc(-c2ncccc2N2CCN(c3ccncc3)CC2)cc1` [Compound 42] gave a melting point of 248 °C. Also, in the data set with rgRSV224 virus, the EC50 was 0.501 µM. Also, the CC50 at 3 days in data set [1] is greater than 100 µM.

The compound `Cn1ccc2c(-c3ncccc3N3CCN(c4ccncc4)CC3)cccc21` [Compound 43] displayed a melting point of 170 °C. Besides, in the data set with rgRSV224 virus, the EC50 is 0.0302 µM. The CC50 at 3 days in data set [1] is 45.7 µM.

The compound `c1cnc(-c2ccc3cc[nH]c3c2)c(N2CCN(c3ccncc3)CC2)c1` [Compound 44] registered a melting point of 195 °C. The EC50 in the data set on rgRSV224 virus was 0.0324 µM. Besides, the CC50 at 3 days in data set [1] is 53.7 µM.

Compound `c1cnc(-c2ccc3ncsc3c2)c(N2CCN(c3ccncc3)CC2)c1` [Compound 45] had a melting point of 196 °C. Besides, the EC50 in the data set with rgRSV224 virus was 0.155 µM. In data set [1], the CC50 at 3 days is greater than 100 µM.

Turning to `OCCCn1ccc2cc(-c3ncccc3N3CCN(c4ccncc4)CC3)ccc21` [Compound 46], the melting point was determined as 110 °C. Also, in the data set on rgRSV224 virus, the EC50 is 0.148 µM. The CC50 at 3 days in data set [1] was 52.5 µM.

Regarding `Cn1ccc2cc(C(F)(F)F)c(-c3ncccc3N3CCN(c4ccncc4)CC3)cc21` [Compound 49], the melting point was 120 °C. Besides, the EC50 in the data set on rgRSV224 virus was 0.0676 µM. The CC50 at 3 days in data set [1] is 75.9 µM.

For `OCCCn1c(-c2ncccc2N2CCN(c3ccncc3)CC2)cc2ccccc21` [Compound 50], the melting point was determined as 110 °C. In addition, the EC50 in the data set with rgRSV224 virus was 0.00661 µM. The CC50 at 3 days in data set [1] was greater than 100 µM.

In the case of `c1ccc(Oc2nccnc2N2CCN(c3ccncc3)CC2)cc1` [Compound 54], the melting point worked out at 130 °C. Further, the EC50 with rgRSV224 virus was 10.7 µM. Further, the CC50 at 3 days in data set [1] was 87.1 µM.

The compound `c1coc(-c2ccc(-c3nccnc3N3CCN(c4ccncc4)CC3)cc2)c1` [Compound 55] yielded a melting point of 153.75 °C. The EC50 in the data set with rgRSV224 virus was 0.794 µM. The CC50 at 3 days in data set [1] is 36.3 µM.

With `c1coc(-c2ccc(-c3ncccc3N3CCN(c4ccncc4)CC3)cc2)c1` [Compound 56], the melting point turned out to be 224.32 °C. For the same compound, the EC50 in the data set on rgRSV224 virus was 0.0955 µM. The CC50 at 3 days in data set [1] was 19.5 µM.

Compound `c1ccc(-c2ccc(-c3ncccc3N3CCN(c4ccncc4)CC3)cc2)cc1` [Compound 59] registered a melting point of 98 °C. Besides, the EC50 in the data set on rgRSV224 virus was 0.525 µM. Also, in data set [1], the CC50 at 3 days is 10.7 µM.

For `c1cnc(-c2ccc(N3CCCCC3)cc2)c(N2CCN(c3ccncc3)CC2)c1` [Compound 60], the melting point came to 92 °C. Moreover, the EC50 with rgRSV224 virus is 0.355 µM. Also, in data set [1], the CC50 at 3 days is 22.9 µM.

The values are drawn from patent US10150761B2, “Substituted pyridine-piperazinyl analogues as RSV antiviral compounds” (Janssen Sciences Ireland UC, priority 2013, dated 2018).
